From patent US20260079084A1, “COMPOUND, EXTRACELLULAR VESICLE STAINING AGENT, AND FLUORESCENT STAINING METHOD FOR EXTRACELLULAR VESICLES” (National University Corporation Tokai National Higher …, priority 2022, published 2026)

What was measured:
[1] = test system: milk-derived extracellular vesicles; experiment: Gel filtration comparison with compound of Patent Literature 1 (Example 17 / Comparative example 4); details: reaction time 3 hours at room temperature
Excerpt: The present applicant has disclosed GIF-2250 illustrated below in Patent Literature 1. GIF-2250 differs from the compounds of the present application in that the portion indicated by “→” is NH. First, the effect of this difference in structure provided on size separation using gel filtration was observed. Note that the synthesis procedure of GIF-2250 is disclosed in Patent Literature 1. The features disclosed in Patent Literature 1 are incorporated in the present specification by reference in its entirety.
Experiments were performed in the same procedure as in Example 10 except that GIF-2276 and GIF-2250 (Comparative example 4), which is disclosed in Patent Literature 1, were used and the reaction time was 3 hours at room temperature. FIG. 8 illustrates a graph in which respective experimental results are overlapped.

[2] = test system: milk-derived extracellular vesicles; experiment: Staining of milk-derived extracellular vesicles with heat treatment, gel filtration analysis (Example 11 / Comparative example 2); details: untreated vs 80° C. for 5 minutes or 15 minutes
Experimental: Experiments were performed in the same procedure as in Example 10 except that, after the staining agent was added to the extracellular vesicle preparation liquid in Example 10, the mixture was immediately analyzed with a column (untreated), the mixture was analyzed after treated at 80° C. for 5 minutes, or the mixture was analyzed after treated at 80° C. for 15 minutes. Note that the compounds used in the experiments of Example 11 are labeled with the GIF numbers in the graphs.
Experiments were performed in the same procedure as in Comparative example 1 except that, after the staining agent was added to the extracellular vesicle preparation liquid in Comparative example 1, the mixture was immediately analyzed with a column (untreated), the mixture was analyzed after treated at 80° C. for 5 minutes, or the mixture was analyzed after treated at 80° C. for 15 minutes.

HEK293 cells [3] = experiment: Tracking of labeled lactic acid bacteria (Yakult)-derived extracellular vesicles introduced into cells (Example 16); assay type: cell-based
Experimental: (§1) The milk-derived extracellular vesicles (exosomes) prepared in the procedure of Example 10 were stained with GIF-2276 at room temperature for 12 hours to label the extracellular vesicles. Unreacted GIF-2276 was removed by Microcon 300K (by Millipore). Lysosomes in HEK293 cells (ThermoFisher) were labeled with LysoBrite Red, and GIF-2276-labeled milk-derived extracellular vesicles were added thereto. After 3 hours, the mixture was observed by a microscope. FIG. 6 illustrates the result. The upper left “2276” in FIG. 6 is a fluorescent photograph of the extracellular vesicles labeled with GIF-2276. The upper right “LysoBright” in FIG. 6 is a fluorescent photograph of the lysosomes labeled with LysoBrite Red. The lower left in FIG. 6 is a photograph obtained by merging the fluorescent photograph of the extracellular vesicles labeled with GIF-2276 and the fluorescent photograph of the lysosomes labeled with LysoBrite Red. The lower right in FIG. 6 is a photograph of HEK293 cells captured in visible light.
Experiments were performed in the same procedure as in Example 15 except that, instead of milk-derived extracellular vesicles, lactic acid bacteria (Yakult)-derived extracellular vesicles were used. FIG. 7 illustrates the result.

[4] = test system: milk-derived extracellular vesicles; experiment: Staining of milk-derived extracellular vesicles, analysis by high-performance liquid chromatography gel filtration system (Example 10 / Comparative example 1); details: staining agent 1 μM, room temperature 12 hours
Experimental: Commercially available pasteurized milk (by Seki milk or Takanashi) of 1 L was centrifuged at 8000 rpm for 30 minutes, and the supernatant was filtrated by a coffee filter. Subsequently, acetic acid was added thereto to be 1%, and the mixture was further centrifuged at 8000 rpm for 30 minutes. The supernatant thereof was further filtrated by a coffee filter. The liquid obtained after the filtration was filtrated by a filter of 0.45 μm (by Sartorius), and the filtrate was filtrated by a filter of 0.1 μm (by Sartorius). Since extracellular vesicles remain on the filter of 0.1 μm, the extracellular vesicles were washed with 5 mL of phosphate buffer solution three times. Eventually, extracellular vesicles were collected with 1 mL of phosphate buffer solution. Further, 10 μL of the purified extracellular vesicle liquid was diluted with 40 μL of phosphate buffer solution (hereafter, referred to as “extracellular vesicle preparation liquid”)
Compounds 1 to 9 synthesized in Examples 1 to 9 were diluted with DMSO to produce a staining agent used in Example 10.
ExoSparkler Exosome Membrane Labeling Kit-Red (ExoSP Model No. EX02, by Dojin) was diluted with a DMSO solution in accordance with the instructions for use to produce a staining agent of Comparative example 1.
The staining agent produced in Example 10 was added to an extracellular vesicle preparation liquid so that the final concentration of the staining agent became 1 μM. Further, 1 μL of the staining agent produced in Comparative example 1 was added to an extracellular vesicle preparation liquid. In Example 10 and Comparative example 1, the staining agent was added to the extracellular vesicle preparation liquid and then allowed to stand at room temperature for 12 hours. After 12 hours elapsed, 10 μL of the reaction product was analyzed by a high-performance liquid chromatography gel filtration system. […] Detection was performed on ExoSP at 560 nm for excitation and 600 nm for fluorescence detection and was performed on the compounds synthesized in Examples 1 to 8 at 480 nm for excitation and 530 nm for fluorescence detection. […]

HEK293 cells [5] = experiment: Tracking of labeled milk-derived extracellular vesicles introduced into cells (Example 15); assay type: cell-based
Experimental: as §1

[6] = test system: extracellular vesicles of pasteurized milk; experiment: Correlation between gel filtration and plate reader detection of extracellular vesicles (Example 17 (2))
Experimental: Patent Literature 1 discloses that the use of GIF-2250 enables quantification of extracellular vesicles by a plate reader. The correlation between detection of extracellular vesicles by a plate reader with the use of GIF-2250 and detection of extracellular vesicles by gel filtration with the use of GIF-2276 synthesized in Example 1 was examined.
Pasteurized milk (Takanashi) was heated at 60, 70, and 80° C. for 30 minutes and cooled back to room temperature. The extracellular vesicles were then prepared by the procedure described in Example 10, and the pasteurized milk was added thereto so that the final concentration of GIF-2276 synthesized in Example 1 became 1 μM to label the extracellular vesicles. The mixture was analyzed by a high-performance liquid chromatography gel filtration system to find the area of the peak. Extracellular vesicles prepared in the same manner reacted with 3 μM of GIF-2250 to find the fluorescence quantity by using a fluorescent plate reader. Respective values were plotted to find a correlation.

[7] = test system: lactic acid bacteria (Yakult)-derived extracellular vesicles; experiment: Staining of lactic acid bacteria (Yakult)-derived extracellular vesicles, gel filtration analysis (Example 14 / Comparative example 3); details: staining agent 1 μM, room temperature 12 hours
Experimental: The staining agent produced in Example 10 was added to an extracellular vesicle preparation liquid so that the final concentration of the staining agent became 1 μM. Further, 1 μL of the staining agent produced in Comparative example 1 was added to an extracellular vesicle preparation liquid. In Example 10 and Comparative example 1, the staining agent was added to the extracellular vesicle preparation liquid and then allowed to stand at room temperature for 12 hours. After 12 hours elapsed, 10 μL of the reaction product was analyzed by a high-performance liquid chromatography gel filtration system. As the eluent for the column, 10 mM of Tris (pH 6.8), 0.25 mM of EDTA, and 50 mM of NaCl were used. Detection was performed on ExoSP at 560 nm for excitation and 600 nm for fluorescence detection and was performed on the compounds synthesized in Examples 1 to 8 at 480 nm for excitation and 530 nm for fluorescence detection. A column having 3 cm of Gen 2 qEV original/70 nm (by iZQN) and Shodex OHpak SB-807 (by Showa denko) connected to each other was used.
Next, experiments using various lactic fermenting beverages were performed. As the lactic fermenting beverage, A: Yakult (by Yakult), B: Onakayorokobu lactic acid bacteria (by Kurashimoa), and C: Pirkle (by Nissin Foods) were used. Each 500 mL of the lactic fermenting beverages of A to C listed above was centrifuged at 8000 rpm for 30 minutes, and the supernatant was filtrated by a coffee filter. The liquid obtained after the filtration was filtrated by a filter of 0.45 μm (by Sartorius), and the filtrate was filtrated by a filter of 0.033 μm (by GVS). Since extracellular vesicles remain on the filter of 0.033 μm, the extracellular vesicles were washed with 5 mL of phosphate buffer solution three times. Eventually, extracellular vesicles were collected with 1 mL of phosphate buffer solution. […]

| Compound | effect of heat treatment on fluorescence intensity [2] | sensitivity order in staining of pasteurized milk extracellular vesicles [4] | sensitivity order in staining of lactic acid bacteria extracellular vesicles [7] | other results |
| --- | --- | --- | --- | --- |
| CN(C)c1ccc(CCCN(C)C2CCc3cc(OCCNc4ccc([N+](=O)[O-])c5nonc45)ccc32)cc1 (stereo not shown) [GIF-2250, reference compound] | – | – | – | peak of milk-derived extracellular vesicles in gel filtration [1]: no peak of milk-derived extracellular vesicles was found |
| CN(C)c1ccc(CN(C)C2CCc3cc(OCCn4cc(CCOc5ccc([N+](=O)[O-])c6nonc56)nn4)ccc32)cc1 (stereo not shown) [GIF-2274] | significant increase in the fluorescence intensity due to heat treatment | – | – | – |
| CN(C)c1ccc(CCCN(C)C2CCc3cc(OCCOc4ccc([N+](=O)[O-])c5nonc45)ccc32)cc1 (stereo not shown) [GIF-2276] | significant increase in the fluorescence intensity due to heat treatment | highest in the order of GIF-2281, GIF-2280, and GIF-2276 | – | tracking of labeled extracellular vesicles in cells (HEK293 cells [3]): can be tracked in the cells to which the same was introduced; tracking of labeled extracellular vesicles in cells (HEK293 cells [5]; HEK293 cells, after 3 hours): can be tracked in the cells to which the same was introduced; localization of signals of labeled extracellular vesicles in cells (HEK293 cells [5]; lysosomes labeled with LysoBrite Red, microscope after 3 hours): most of signals from extracellular vesicles are localized in the lysosomes; peak of milk-derived extracellular vesicles in gel filtration [1]: a clear peak due to the size of milk-derived extracellular vesicles was found; quantification of extracellular vesicles by plate reader ([6]; depiction omitted): successfully quantified; correlation of gel filtration peak area (GIF-2276) with plate reader fluorescence intensity (GIF-2250) ([6]; milk heated at 60, 70, 80° C. for 30 minutes, GIF-2276 1 μM, GIF-2250 3 μM): high correlation |
| CN(C)c1ccc(CCCN(C)C2CCc3cc(OCCOCCOCCOCCOc4ccc([N+](=O)[O-])c5nonc45)ccc32)cc1 (stereo not shown) [GIF-2282] | – | – | highest in the order of GIF-2277, GIF-2281, and GIF-2282 | – |
| CN(C)c1ccc(CCCN(C)C2CCc3cc(OCCOCCOc4ccc([N+](=O)[O-])c5nonc45)ccc32)cc1 (stereo not shown) [GIF-2277] | significant increase in the fluorescence intensity due to heat treatment | – | highest in the order of GIF-2277, GIF-2281, and GIF-2282 | – |
| CN(C)c1ccc(CCCN(C)C2CCc3cc(OCCCCCCOc4ccc([N+](=O)[O-])c5nonc45)ccc32)cc1 (stereo not shown) [GIF-2280] | – | highest in the order of GIF-2281, GIF-2280, and GIF-2276 | – | – |
| CN(CCCc1ccc(N(C)C)cc1)Cc1ccc(OCCOc2ccc([N+](=O)[O-])c3nonc23)cc1 [GIF-2281] | – | highest in the order of GIF-2281, GIF-2280, and GIF-2276 | highest in the order of GIF-2277, GIF-2281, and GIF-2282 | – |
